Compound	melting point [°C]
C=C(C)c1ccc([C@H]2CN(C)C(=O)[C@@H]2C(=O)Nc2cccc(F)c2F)cc1 [Compound 1149]	126 to 130
COc1ccc([C@H]2CNC(=O)[C@@H]2C(=O)Nc2cccc(F)c2F)cc1 [Compound 1341]	187 to 191
O=C1NC[C@H](c2cc(Br)cc(Br)c2)[C@H]1C(=O)Nc1cccc(F)c1F [Compound 1366]	81 to 85

Results, then the compound that gave them:

melting point [°C]	Compound
141 to 145	CN1C[C@H](c2ccc(F)c(Oc3ccccc3)c2)[C@@H](C(=O)Nc2ccccc2S(C)(=O)=O)C1=O [Compound 1143]
123 to 127	O=C1NC[C@H](c2ccc(F)c(Oc3ccccc3)c2)[C@H]1C(=O)Nc1cccc(F)c1F [Compound 1258]
130 to 134	COc1ccc([C@H]2CN(C)C(=O)[C@@H]2C(=O)Nc2cccc(F)c2F)cc1 [Compound 1343]
